In patent US20160212997A1, “AGRICULTURAL CHEMICALS” (REDAG CROP PROTECTION LTD, priority 2013, published 2016):

Key:
Type in all cases: in vivo
[1] = test system: Cabbage moth, Mamestra brassicae; test: Potter tower spray on cabbage moth larvae, knockdown and mortality; details: Cabbage moths
Excerpt: (§1) The compounds were screened for insecticidal efficacy against aphids, Myzus persicae, Cabbage moth, Mamestra brassicae, diamond black moths, Plutella xylostella, red spider mites, Tetranychus urticae, whitefly, Trialeurodes vaporariorum, in terms of knockdown and mortality.
(§2) Myzus persicae, Cabbage moth, Mamestra brassicae, diamond back moths, Plutella xylostella, red spider mites, Tetranychus urticae, whitefly, Trialeurodes vaporariorum, were obtained from specified laboratory cultures. Mixed sex and age aphids and mites, moth larvae and whitefly scale infested leaves were used in the experiments. Environmental conditions were closely monitored and recorded and were within the optimal range of the target species.
(§3) The compounds were screened at a range of five concentrations, diluted in DMSO. Some of the compounds were screened against aphids, whitefly and red spider mites and other compounds were screened against cabbage moth, and diamond black moths. A carrier only and an untreated control will also be conducted. Treatments were applied directly onto the insects within Petri dishes, using a potter tower.
(§4) Twenty mites and ten aphids, scales and moth larvae were placed within a Petri dish, lined with a suitable leaf disc on a damp cotton wool pad. Scales were already on leaves. The Petri dishes were then sprayed using a potter tower. The number of knocked down and anthropods were assessed at 24 and 48 hours post treatment. Five replicates were be performed for each treatment, for each species.

Tomato moths [2] = test: Potter tower spray on tomato moths, knockdown and mortality
Excerpt: as §3, §4

aphids, Myzus persicae = test: Potter tower spray on aphids, knockdown and mortality; details: Aphids
How it was run: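 Ten aphids (mixed sex and age) per Petri dish on a leaf disc were sprayed by Potter tower with compounds at five concentrations in DMSO. Knockdown and mortality were scored at 24 and 48 hours, five replicates per treatment, alongside carrier-only and untreated controls.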

[3] = test system: red spider mites, Tetranychus urticae; test: Potter tower spray on red spider mites, knockdown and mortality; details: Spider mites
Excerpt: as §1, §2, §3, §4

Tomato moths [4] = test: Potter tower spray on tomato moths, knockdown and mortality; remark: listed apart in the source

SMILES: CC(c1ccc(C(F)(F)F)nc1)S(C)(=O)=NC#N (stereo not shown) [Compound 11, N-[Methyl-oxo-[1-[6-(trifluoromethyl)-3-pyridyl]ethyl]-λ^6-sulfanylidene]cyanamide, reference compound]
- percentage control ([1]; 12.5 g/ha, 24 h): E (A percentage control of from 1 to 19 is indicated by the letter E)
- percentage control ([1]; 12.5 g/ha, 48 h): E (A percentage control of from 1 to 19 is indicated by the letter E)
- percentage control ([1]; 25 g/ha, 24 h): E (A percentage control of from 1 to 19 is indicated by the letter E)
- percentage control ([1]; 25 g/ha, 48 h): E (A percentage control of from 1 to 19 is indicated by the letter E)
- percentage control ([1]; 50 g/ha, 24 h): E (A percentage control of from 1 to 19 is indicated by the letter E)
- percentage control ([1]; 50 g/ha, 48 h): E (A percentage control of from 1 to 19 is indicated by the letter E)
- percentage control ([1]; 100 g/ha, 24 h): E (A percentage control of from 1 to 19 is indicated by the letter E)
- percentage control ([1]; 100 g/ha, 48 h): E (A percentage control of from 1 to 19 is indicated by the letter E)
- percentage control ([1]; 200 g/ha, 24 h): E (A percentage control of from 1 to 19 is indicated by the letter E)
- percentage control ([1]; 200 g/ha, 48 h): E (A percentage control of from 1 to 19 is indicated by the letter E)
- percentage control (Tomato moths [2]; 12.5 g/ha, 24 h): 0%
- percentage control (Tomato moths [2]; 25 g/ha, 24 h): E (A percentage control of from 1 to 19 is indicated by the letter E)
- percentage control (Tomato moths [2]; 25 g/ha, 48 h): E (A percentage control of from 1 to 19 is indicated by the letter E)
- percentage control (Tomato moths [2]; 50 g/ha, 24 h): 0%
- percentage control (Tomato moths [2]; 50 g/ha, 48 h): E (A percentage control of from 1 to 19 is indicated by the letter E)
- percentage control (Tomato moths [2]; 100 g/ha, 48 h): E (A percentage control of from 1 to 19 is indicated by the letter E)
- percentage control (Tomato moths [2]; 200 g/ha, 24 h): E (A percentage control of from 1 to 19 is indicated by the letter E)
- percentage control (Tomato moths [2]; 200 g/ha, 48 h): E (A percentage control of from 1 to 19 is indicated by the letter E)
- percentage control (aphids, Myzus persicae; 12.5 g/ha, 24 h): C (A percentage control of from 40 to 59 is indicated by the letter C)
- percentage control (aphids, Myzus persicae; 12.5 g/ha, 48 h): B (A percentage control of from 60 to 79 is indicated by the letter B)
- percentage control (aphids, Myzus persicae; 25 g/ha, 24 h): E (A percentage control of from 1 to 19 is indicated by the letter E)
- percentage control (aphids, Myzus persicae; 25 g/ha, 48 h): B (A percentage control of from 60 to 79 is indicated by the letter B)
- percentage control (aphids, Myzus persicae; 50 g/ha, 24 h): D (A percentage control of from 20 to 39 is indicated by the letter D)
- percentage control (aphids, Myzus persicae; 50 g/ha, 48 h): B (A percentage control of from 60 to 79 is indicated by the letter B)
- percentage control (aphids, Myzus persicae; 100 g/ha, 24 h): A (A percentage control of from 80 to 100 is indicated by the letter A)
- percentage control (aphids, Myzus persicae; 100 g/ha, 48 h): A (A percentage control of from 80 to 100 is indicated by the letter A)
- percentage control (aphids, Myzus persicae; 200 g/ha, 24 h): B (A percentage control of from 60 to 79 is indicated by the letter B)
- percentage control (aphids, Myzus persicae; 200 g/ha, 48 h): A (A percentage control of from 80 to 100 is indicated by the letter A)
- percentage control ([3]; 12.5 g/ha, 24 h): E (A percentage control of from 1 to 19 is indicated by the letter E)
- percentage control ([3]; 12.5 g/ha, 48 h): D (A percentage control of from 20 to 39 is indicated by the letter D)
- percentage control ([3]; 25 g/ha, 24 h): E (A percentage control of from 1 to 19 is indicated by the letter E)
- percentage control ([3]; 25 g/ha, 48 h): E (A percentage control of from 1 to 19 is indicated by the letter E)
- percentage control ([3]; 50 g/ha, 24 h): D (A percentage control of from 20 to 39 is indicated by the letter D)
- percentage control ([3]; 50 g/ha, 48 h): D (A percentage control of from 20 to 39 is indicated by the letter D)
- percentage control ([3]; 100 g/ha, 24 h): D (A percentage control of from 20 to 39 is indicated by the letter D)
- percentage control ([3]; 100 g/ha, 48 h): D (A percentage control of from 20 to 39 is indicated by the letter D)
- percentage control ([3]; 200 g/ha, 24 h): C (A percentage control of from 40 to 59 is indicated by the letter C)
- percentage control ([3]; 200 g/ha, 48 h): C (A percentage control of from 40 to 59 is indicated by the letter C)
- percentage control (Tomato moths [4]; 12.5 g/ha, 48 h): E (A percentage control of from 1 to 19 is indicated by the letter E)
- percentage control (Tomato moths [4]; 100 g/ha, 24 h): E (A percentage control of from 1 to 19 is indicated by the letter E)
